Measurements taken from ChEMBL document CHEMBL1201861, “Genomics of Drug Sensitity in Cancer screening data, Wellcome Trust Sanger Institute”.

Experiments:
Test in all cases: cells
Assay type in all cases: functional, cell-based, Homo sapiens
MHH-ES-1 = system: MHH-ES-1;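 further: cell growth inhibition measured by a cell viability assay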
Description: SANGER: Inhibition of human MHH-ES-1 cell growth in a cell viability assay.

A2058 = system: A2058;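 further: reduction of A2058 cell growth, read out with a viability assay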
Description: SANGER: Inhibition of human A2058 cell growth in a cell viability assay.

DBTRG-05MG = system: DBTRG-05MG;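 further: cell viability assay measuring growth inhibition of human DBTRG-05MG cells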
Description: SANGER: Inhibition of human DBTRG-05MG cell growth in a cell viability assay.

786-0 = system: 786-0
Description: SANGER: Inhibition of human 786-0 cell growth in a cell viability assay.

BT-20 = system: BT-20;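 further: cell viability assay measuring suppression of growth in human BT-20 cells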
Description: SANGER: Inhibition of human BT-20 cell growth in a cell viability assay.

J82 = system: J82;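 further: growth inhibition of J82 cells, read out with a cell viability assay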
Description: SANGER: Inhibition of human J82 cell growth in a cell viability assay.

HCC38 = system: HCC38;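 further: cell viability assay on the human HCC38 cell line, with IC50 marking the concentration that inhibits cell growth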
Description: SANGER: Inhibition of human HCC38 cell growth in a cell viability assay.

CAL-148 = system: CAL-148
Description: SANGER: Inhibition of human CAL-148 cell growth in a cell viability assay.

MKN-1 = system: MKN-1;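 further: growth inhibition of human MKN1 cells, read out by a cell viability measurement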
Description: SANGER: Inhibition of human MKN1 cell growth in a cell viability assay.

COLO-679 = system: COLO-679
Description: SANGER: Inhibition of human COLO-679 cell growth in a cell viability assay.

HSC-3 = system: HSC-3
Description: SANGER: Inhibition of human HSC-3 cell growth in a cell viability assay.

TUR = system: TUR;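 further: growth inhibition of human TUR cells, read out with a cell viability assay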
Description: SANGER: Inhibition of human TUR cell growth in a cell viability assay.

AN3-CA = system: AN3-CA;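 further: growth inhibition of human AN3-CA cells measured by a cell viability assay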
Description: SANGER: Inhibition of human AN3-CA cell growth in a cell viability assay.

CP50-MEL-B = system: CP50-MEL-B;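 further: growth inhibition of the human cell line, measured with a cell viability read-out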
Description: SANGER: Inhibition of human CP50-MEL-B cell growth in a cell viability assay.

C-33-A = system: C-33-A;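 further: cell viability assay measuring growth inhibition of C-33-A cells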
Description: SANGER: Inhibition of human C-33-A cell growth in a cell viability assay.

SNU-387 = system: SNU-387
Description: SANGER: Inhibition of human SNU-387 cell growth in a cell viability assay.

A-431 = system: A-431;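 further: growth inhibition of A-431 cells, determined with a cell viability read-out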
Description: SANGER: Inhibition of human A431 cell growth in a cell viability assay.

BOKU = system: BOKU;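 further: growth inhibition of the human BOKU cell line, read out by a cell viability assay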
Description: SANGER: Inhibition of human BOKU cell growth in a cell viability assay.

SK-MM-2 = system: SK-MM-2;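 further: growth inhibition of human SK-MM-2 cells, read out with a cell viability assay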
Description: SANGER: Inhibition of human SK-MM-2 cell growth in a cell viability assay.

YT = system: YT
Description: SANGER: Inhibition of human YT cell growth in a cell viability assay.

ABC-1 = system: ABC-1;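 further: growth inhibition of human ABC-1 cells, read out by a cell viability assay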
Description: SANGER: Inhibition of human ABC-1 cell growth in a cell viability assay.

COLO-680N = system: COLO-680N;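 further: cell viability assay used to measure inhibition of COLO-680N cell growth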
Description: SANGER: Inhibition of human COLO-680N cell growth in a cell viability assay.

UACC-893 = system: UACC-893
Description: SANGER: Inhibition of human UACC-893 cell growth in a cell viability assay.

PANC-08-13 = system: PANC-08-13;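 further: cell growth inhibition, measured with a cell viability assay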
Description: SANGER: Inhibition of human PANC-08-13 cell growth in a cell viability assay.

SW1783 = system: SW1783;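 further: cell growth inhibition measured with a viability assay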
Description: SANGER: Inhibition of human SW1783 cell growth in a cell viability assay.

NCI-H1563 = system: NCI-H1563;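 further: growth inhibition of human NCI-H1563 cells, read out with a cell viability assay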
Description: SANGER: Inhibition of human NCI-H1563 cell growth in a cell viability assay.

A204 = system: A204;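 further: growth inhibition of human A204 cells, read out with a cell viability assay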
Description: SANGER: Inhibition of human A204 cell growth in a cell viability assay.

VMRC-RCZ = system: VMRC-RCZ;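 further: growth inhibition measured with a cell viability assay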
Description: SANGER: Inhibition of human VMRC-RCZ cell growth in a cell viability assay.

HOS = system: HOS;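 further: growth inhibition of human HOS cells, read out with a cell viability assay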
Description: SANGER: Inhibition of human HOS cell growth in a cell viability assay.

MC-IXC = system: MC-IXC;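 further: growth inhibition of MC-IXC cells, read out with a cell viability assay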
Description: SANGER: Inhibition of human MC-IXC cell growth in a cell viability assay.

SR = system: SR
Description: SANGER: Inhibition of human SR cell growth in a cell viability assay.

HT-3 = system: HT-3;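 further: growth inhibition measured with a cell viability readout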
Description: SANGER: Inhibition of human HT-3 cell growth in a cell viability assay.

SW837 = system: SW837;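 further: growth inhibition of SW837 cells, determined with a cell viability assay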
Description: SANGER: Inhibition of human SW837 cell growth in a cell viability assay.

CHL-1 = system: CHL-1;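 further: cell growth inhibition, read out with a cell viability assay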
Description: SANGER: Inhibition of human CHL-1 cell growth in a cell viability assay.

NCI-H2081 = system: NCI-H2081;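 further: growth inhibition of human NCI-H2081 cells, read out with a cell viability assay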
Description: SANGER: Inhibition of human NCI-H2081 cell growth in a cell viability assay.

BHY = system: BHY;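 further: cell growth inhibition read out by a viability assay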
Description: SANGER: Inhibition of human BHY cell growth in a cell viability assay.

FaDu = system: FaDu;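 further: cell viability readout of growth inhibition in FaDu cells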
Description: SANGER: Inhibition of human FADU cell growth in a cell viability assay.

DOK = system: DOK;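 further: cell viability assay read-out, values reflect inhibition of cell growth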
Description: SANGER: Inhibition of human DOK cell growth in a cell viability assay.

HT-1080 = system: HT-1080
Description: SANGER: Inhibition of human HT-1080 cell growth in a cell viability assay.

HTC-C3 = system: HTC-C3;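 further: inhibition of cell growth, read out with a cell viability assay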
Description: SANGER: Inhibition of human HTC-C3 cell growth in a cell viability assay.

RT-112 = system: RT-112
Description: SANGER: Inhibition of human RT-112 cell growth in a cell viability assay.

NCI-H292 = system: NCI-H292;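 further: growth inhibition of NCI-H292 cells, read out with a cell viability assay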
Description: SANGER: Inhibition of human NCI-H292 cell growth in a cell viability assay.

NCI-H2052 = system: NCI-H2052;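 further: growth inhibition of NCI-H2052 cells, read out with a cell viability assay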
Description: SANGER: Inhibition of human NCI-H2052 cell growth in a cell viability assay.

DK-MG = system: DK-MG;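 further: growth inhibition of DK-MG cells, read out with a cell viability assay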
Description: SANGER: Inhibition of human DK-MG cell growth in a cell viability assay.

BCPAP = system: BCPAP;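 further: growth inhibition of BCPAP cells, read out in a cell viability assay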
Description: SANGER: Inhibition of human BCPAP cell growth in a cell viability assay.

BLEOMYCIN gave an IC50 (MHH-ES-1; mhh-es-1) of 0.0436 µM, an IC50 (A2058; a2058) of 0.808 µM and an IC50 (DBTRG-05MG; dbtrg-05mg) of 5.67 µM. It also gave an IC50 (786-0) of 0.0808 µM, an IC50 (BT-20; bt-20) of 2.77 µM and an IC50 (J82; j82) of 0.774 µM. For the same compound, the IC50 (HCC38; hcc38) was 0.0312 µM, the IC50 (CAL-148; cal-148) was 4.6 µM and the IC50 (MKN-1; mkn-1) was 0.0796 µM. The IC50 (COLO-679; colo-679) was 2.66 µM, the IC50 (HSC-3; hsc-3) was 0.688 µM and the IC50 (TUR; tur) was 18.9 µM. The IC50 (AN3-CA; an3-ca) was 2.55 µM, the IC50 (CP50-MEL-B; cp50-mel-b) was 3950 µM and the IC50 (C-33-A; c-33-a) was 0.432 µM. For the same compound, the IC50 (SNU-387; snu-387) was 0.925 µM, the IC50 (A-431; a-431) was 2.11 µM and the IC50 (BOKU; boku) was 0.137 µM. For the same compound, the IC50 (SK-MM-2; sk-mm-2) was 23.2 µM, the IC50 (YT; yt) was 1.32 µM and the IC50 (ABC-1; abc-1) was 19.7 µM. The IC50 (COLO-680N; colo-680n) was 5.76 µM, the IC50 (UACC-893; uacc-893) was 130 µM and the IC50 (PANC-08-13; panc-08-13) was 12.1 µM. The IC50 (SW1783; sw1783) was 0.249 µM, the IC50 (NCI-H1563; nci-h1563) was 20.6 µM and the IC50 (A204; a204) was 0.2 µM. For the same compound, the IC50 (VMRC-RCZ; vmrc-rcz) was 2.69 µM, the IC50 (HOS; hos) was 0.56 µM and the IC50 (MC-IXC; mc-ixc) was 3 µM. For the same compound, the IC50 (SR; sr) was 0.0297 µM, the IC50 (HT-3; ht-3) was 5.78 µM and the IC50 (SW837; sw837) was 1.61 µM. For the same compound, the IC50 (CHL-1; chl-1) was 0.732 µM, the IC50 (NCI-H2081; nci-h2081) was 221 µM and the IC50 (BHY; bhy) was 1.83 µM. The IC50 (FaDu; fadu) was 5.14 µM, the IC50 (DOK; dok) was 322 µM and the IC50 (HT-1080; ht-1080) was 0.234 µM. For the same compound, the IC50 (HTC-C3; htc-c3) was 77.8 µM, the IC50 (RT-112; rt-112) was 2.32 µM and the IC50 (NCI-H292; nci-h292) was 0.803 µM. The IC50 (NCI-H2052; nci-h2052) was 2.97 µM, the IC50 (DK-MG; dk-mg) was 85.8 µM and the IC50 (BCPAP; bcpap) was 1.44 µM.

`O=C(O)c1ccc(-c2c[nH]c3ncc(-c4ccccc4)cc23)cc1C1CCCC1` [GSK-650394] showed an IC50 (MHH-ES-1; Homo sapiens, MHH-ES-1) of 13.6 µM, an IC50 (A2058; Homo sapiens, A2058) of 13.5 µM and an IC50 (DBTRG-05MG; Homo sapiens, DBTRG-05MG) greater than 16 µM. For the same compound, the IC50 (786-0; Homo sapiens) was 2.95 µM, the IC50 (BT-20; Homo sapiens, BT-20) was greater than 16 µM and the IC50 (J82; Homo sapiens, J82) was 8.2 µM. For the same compound, the IC50 (HCC38; Homo sapiens, HCC38) was greater than 16 µM, the IC50 (CAL-148; Homo sapiens, CAL-148) was greater than 16 µM and the IC50 (MKN-1; Homo sapiens, MKN-1) was 9.19 µM. For the same compound, the IC50 (COLO-679; Homo sapiens, COLO-679) was 5.3 µM, the IC50 (HSC-3; Homo sapiens, HSC-3) was greater than 16 µM and the IC50 (TUR; Homo sapiens, TUR) was 4.67 µM. For the same compound, the IC50 (AN3-CA; Homo sapiens, AN3-CA) was 7.66 µM, the IC50 (CP50-MEL-B; Homo sapiens, CP50-MEL-B) was greater than 16 µM and the IC50 (C-33-A; Homo sapiens, C-33-A) was 8.53 µM. For the same compound, the IC50 (SNU-387; Homo sapiens, SNU-387) was greater than 16 µM, the IC50 (A-431; Homo sapiens, A-431) was 1.86 µM and the IC50 (BOKU; Homo sapiens, BOKU) was greater than 16 µM. It also gave an IC50 (SK-MM-2; Homo sapiens, SK-MM-2) greater than 16 µM, an IC50 (YT; Homo sapiens, YT) of 9.9 µM and an IC50 (ABC-1; Homo sapiens, ABC-1) of 6.58 µM. It also gave an IC50 (COLO-680N; Homo sapiens, COLO-680N) greater than 16 µM, an IC50 (UACC-893; Homo sapiens, UACC-893) greater than 16 µM and an IC50 (PANC-08-13; Homo sapiens, PANC-08-13) greater than 16 µM. For the same compound, the IC50 (SW1783; Homo sapiens, SW1783) was greater than 16 µM, the IC50 (NCI-H1563; Homo sapiens, NCI-H1563) was greater than 16 µM and the IC50 (A204; Homo sapiens, A204) was greater than 16 µM. The IC50 (VMRC-RCZ; Homo sapiens, VMRC-RCZ) was greater than 16 µM, the IC50 (HOS; Homo sapiens, HOS) was 1.97 µM and the IC50 (MC-IXC; Homo sapiens, MC-IXC) was greater than 16 µM. The IC50 (SR; Homo sapiens, SR) was greater than 16 µM, the IC50 (HT-3; Homo sapiens, HT-3) was greater than 16 µM and the IC50 (SW837; Homo sapiens, SW837) was greater than 16 µM. The IC50 (CHL-1; Homo sapiens, CHL-1) was 3.5 µM, the IC50 (NCI-H2081; Homo sapiens, NCI-H2081) was greater than 16 µM and the IC50 (BHY; Homo sapiens, BHY) was 4.92 µM. For the same compound, the IC50 (FaDu; Homo sapiens, FaDu) was greater than 16 µM, the IC50 (DOK; Homo sapiens, DOK) was greater than 16 µM and the IC50 (HT-1080; Homo sapiens, HT-1080) was 5.49 µM. The IC50 (HTC-C3; Homo sapiens, HTC-C3) was 10.7 µM, the IC50 (RT-112; Homo sapiens, RT-112) was 1.03 µM and the IC50 (NCI-H292; Homo sapiens, NCI-H292) was greater than 16 µM. It also gave an IC50 (NCI-H2052; Homo sapiens, NCI-H2052) greater than 16 µM, an IC50 (DK-MG; Homo sapiens, DK-MG) greater than 16 µM and an IC50 (BCPAP; Homo sapiens, BCPAP) of 13 µM.

Work on `COc1cccc2c1C(=O)c1c(O)c3c(c(O)c1C2=O)C[C@@](O)(C(=O)CO)C[C@@H]3O[C@H]1C[C@H](N)[C@H](O)[C@H](C)O1` [DOXORUBICIN] yielded an IC50 (MHH-ES-1; Homo sapiens, MHH-ES-1) of 0.0216 µM, an IC50 (A2058; Homo sapiens, A2058) of 0.0177 µM and an IC50 (DBTRG-05MG; Homo sapiens, DBTRG-05MG) of 0.0671 µM. The IC50 (786-0; Homo sapiens) was 0.00847 µM, the IC50 (BT-20; Homo sapiens, BT-20) was greater than 1.02 µM and the IC50 (J82; Homo sapiens, J82) was 0.0213 µM. For the same compound, the IC50 (HCC38; Homo sapiens, HCC38) was 0.0425 µM, the IC50 (CAL-148; Homo sapiens, CAL-148) was 0.0269 µM and the IC50 (MKN-1; Homo sapiens, MKN-1) was 0.00986 µM. The IC50 (COLO-679; Homo sapiens, COLO-679) was 0.016 µM, the IC50 (HSC-3; Homo sapiens, HSC-3) was 0.0745 µM and the IC50 (TUR; Homo sapiens, TUR) was 0.0763 µM. For the same compound, the IC50 (AN3-CA; Homo sapiens, AN3-CA) was 0.0723 µM, the IC50 (CP50-MEL-B; Homo sapiens, CP50-MEL-B) was greater than 1.02 µM and the IC50 (C-33-A; Homo sapiens, C-33-A) was 0.0329 µM. For the same compound, the IC50 (SNU-387; Homo sapiens, SNU-387) was 0.236 µM, the IC50 (A-431; Homo sapiens, A-431) was 0.0209 µM and the IC50 (BOKU; Homo sapiens, BOKU) was 0.111 µM. The IC50 (SK-MM-2; Homo sapiens, SK-MM-2) was 0.942 µM, the IC50 (YT; Homo sapiens, YT) was greater than 1.02 µM and the IC50 (ABC-1; Homo sapiens, ABC-1) was 0.0834 µM. The IC50 (COLO-680N; Homo sapiens, COLO-680N) was 0.0339 µM, the IC50 (UACC-893; Homo sapiens, UACC-893) was 0.522 µM and the IC50 (PANC-08-13; Homo sapiens, PANC-08-13) was greater than 1.02 µM. It also gave an IC50 (SW1783; Homo sapiens, SW1783) of 0.098 µM, an IC50 (NCI-H1563; Homo sapiens, NCI-H1563) of 0.556 µM and an IC50 (A204; Homo sapiens, A204) of 0.0129 µM. For the same compound, the IC50 (VMRC-RCZ; Homo sapiens, VMRC-RCZ) was 0.0933 µM, the IC50 (HOS; Homo sapiens, HOS) was 0.0453 µM and the IC50 (MC-IXC; Homo sapiens, MC-IXC) was 0.0679 µM. The IC50 (SR; Homo sapiens, SR) was 0.0244 µM, the IC50 (HT-3; Homo sapiens, HT-3) was 0.133 µM and the IC50 (SW837; Homo sapiens, SW837) was 0.118 µM. For the same compound, the IC50 (CHL-1; Homo sapiens, CHL-1) was 0.0377 µM, the IC50 (NCI-H2081; Homo sapiens, NCI-H2081) was 0.234 µM and the IC50 (BHY; Homo sapiens, BHY) was 0.0289 µM. The IC50 (FaDu; Homo sapiens, FaDu) was 0.102 µM, the IC50 (DOK; Homo sapiens, DOK) was 1.02 µM and the IC50 (HT-1080; Homo sapiens, HT-1080) was 0.0148 µM. It also gave an IC50 (HTC-C3; Homo sapiens, HTC-C3) of 0.704 µM, an IC50 (RT-112; Homo sapiens, RT-112) of 0.0329 µM and an IC50 (NCI-H292; Homo sapiens, NCI-H292) of 0.0438 µM. It also gave an IC50 (NCI-H2052; Homo sapiens, NCI-H2052) of 0.16 µM, an IC50 (DK-MG; Homo sapiens, DK-MG) greater than 1.02 µM and an IC50 (BCPAP; Homo sapiens, BCPAP) of 0.0525 µM.
